Assay results from PubChem BioAssay (NCI).
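Step 1: Grow cells in 96-well plates. Step 2: Expose to compound for 48 hours at 5 concentrations. Step 3: Interpolate endpoints linearly; if unreached, use highest concentration. TGI: concentration producing complete growth inhibition.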

Experiments:
Assay in all cases: NCI-60 cell line screen, 48 h
[1] = system: HOP-62 NSCLC
[2] = system: A549 NSCLC
[3] = system: SR leukemia
[4] = system: LOX IMVI melanoma
[5] = system: OVCAR-4 ovarian
[6] = system: SN12C renal
[7] = system: SK-MEL-2 melanoma
[8] = system: MDA-N
[9] = system: HCT-116 colon
[10] = system: EKVX NSCLC
[11] = system: SK-OV-3 ovarian
[12] = system: OVCAR-8 ovarian
[13] = system: COLO 205 colon
[14] = system: K-562 leukemia
[15] = system: SF-539 CNS
[16] = system: NCI/ADR-RES ovarian
[17] = system: NCI-H226 lung
[18] = system: BT-549 breast
[19] = system: SF-268 CNS
[20] = system: KM12 colon
[21] = system: HCT-15 colon
[22] = system: A498 renal
[23] = system: M14 melanoma
[24] = system: UO-31 renal
[25] = system: HCC-2998 colon
[26] = system: NCI-H23 lung
[27] = system: NCI-H522 lung
[28] = system: PC-3 prostate
[29] = system: HOP-92 NSCLC
[30] = system: SK-MEL-5 melanoma
[31] = system: TK-10 renal
[32] = system: CAKI-1 renal
[33] = system: OVCAR-3 ovarian
[34] = system: RPMI-8226 leukemia
[35] = system: NCI-H460 lung
[36] = system: MDA-MB-435
[37] = system: MALME-3M melanoma
[38] = system: T-47D breast
[39] = system: SF-295 CNS
[40] = system: SW-620 colon
[41] = system: SNB-19 CNS
[42] = system: U251 CNS
[43] = system: 786-0 renal
[44] = system: UACC-62 melanoma
[45] = system: DU-145 prostate
[46] = system: IGROV1 ovarian
[47] = system: SNB-75 CNS
[48] = system: UACC-257 melanoma
[49] = system: OVCAR-5 ovarian
[50] = system: MCF7 breast
[51] = system: HT29 colon
[52] = system: RXF 393 renal
[53] = system: ACHN renal
[54] = system: SK-MEL-28 melanoma
[55] = system: CCRF-CEM leukemia
[56] = system: MOLT-4 leukemia
[57] = system: MDA-MB-231 breast
[58] = system: HS 578T breast
[59] = system: HL-60(TB) leukemia

For `Nc1c(-c2ccc(Cl)c(Cl)c2)c2ccc([N+](=O)[O-])cc2c(=O)n1-c1nc2ccccc2s1`, the TGI [1] was over 38.6 µM, the TGI [2] was over 43.8 µM and the TGI [3] was over 100 µM. The TGI [4] was 27.3 µM, the TGI [5] was over 100 µM and the TGI [6] was 12.3 µM. The TGI [7] was 14.4 µM, the TGI [8] was over 36 µM and the TGI [9] was 12.9 µM. The TGI [10] was 46.8 µM, the TGI [11] was 28.8 µM and the TGI [12] was 17.9 µM. For the same compound, the TGI [13] was 2.89 µM, the TGI [14] was over 100 µM and the TGI [15] was 16.3 µM. For the same compound, the TGI [16] was 6.8 µM, the TGI [17] was 50.3 µM and the TGI [18] was 21.7 µM. It also gave a TGI [19] of over 39.4 µM, a TGI [20] of over 100 µM and a TGI [21] of over 47 µM. It also gave a TGI [22] of 24.3 µM, a TGI [23] of over 36.1 µM and a TGI [24] of 18.1 µM. The TGI [25] was 92.6 µM, the TGI [26] was 3.13 µM and the TGI [27] was 3.02 µM. It also gave a TGI [28] of over 100 µM, a TGI [29] of 2.81 µM and a TGI [30] of 1.18 µM. For the same compound, the TGI [31] was 30.5 µM, the TGI [32] was over 39.7 µM and the TGI [33] was over 100 µM. It also gave a TGI [34] of over 100 µM, a TGI [35] of over 100 µM and a TGI [36] of over 100 µM. The TGI [37] was 9.72 µM, the TGI [38] was over 24.9 µM and the TGI [39] was 20.4 µM. It also gave a TGI [40] of over 100 µM, a TGI [41] of over 49.4 µM and a TGI [42] of over 34.1 µM. It also gave a TGI [43] of 19.6 µM, a TGI [44] of over 100 µM and a TGI [45] of over 100 µM. It also gave a TGI [46] of over 100 µM, a TGI [47] of 8.23 µM and a TGI [48] of over 100 µM. The TGI [49] was over 74.2 µM, the TGI [50] was 21.1 µM and the TGI [51] was over 34.2 µM. It also gave a TGI [52] of 16.8 µM, a TGI [53] of 20.6 µM and a TGI [54] of over 100 µM. The TGI [55] was 0.525 µM and the TGI [56] was over 100 µM.
`Nc1nc2c(c(-c3cccc(Cl)c3)n1)COC/C2=C\c1cccc(Cl)c1` showed a TGI [1] of over 100 µM, a TGI [4] of over 100 µM and a TGI [5] of over 100 µM. The TGI [6] was over 100 µM, the TGI [7] was over 100 µM and the TGI [8] was over 100 µM. It also gave a TGI [9] of over 100 µM, a TGI [10] of over 100 µM and a TGI [11] of over 100 µM. It also gave a TGI [12] of over 100 µM, a TGI [13] of over 100 µM and a TGI [14] of over 100 µM. It also gave a TGI [15] of over 100 µM, a TGI [16] of over 100 µM and a TGI [17] of over 100 µM. For the same compound, the TGI [18] was over 100 µM, the TGI [57] was over 100 µM and the TGI [19] was over 100 µM. For the same compound, the TGI [20] was over 100 µM, the TGI [58] was over 100 µM and the TGI [21] was over 100 µM. For the same compound, the TGI [22] was over 100 µM, the TGI [23] was over 100 µM and the TGI [24] was 76.3 µM. It also gave a TGI [25] of over 100 µM, a TGI [26] of over 100 µM and a TGI [27] of over 100 µM. For the same compound, the TGI [28] was over 100 µM, the TGI [29] was over 100 µM and the TGI [30] was over 100 µM. For the same compound, the TGI [59] was over 100 µM, the TGI [31] was over 100 µM and the TGI [32] was over 100 µM. The TGI [33] was over 100 µM, the TGI [34] was over 100 µM and the TGI [35] was over 100 µM. The TGI [36] was over 100 µM, the TGI [37] was 81.9 µM and the TGI [38] was over 100 µM. For the same compound, the TGI [39] was over 100 µM, the TGI [40] was over 100 µM and the TGI [41] was over 100 µM. It also gave a TGI [42] of over 100 µM, a TGI [43] of over 100 µM and a TGI [44] of over 100 µM. For the same compound, the TGI [45] was over 100 µM, the TGI [46] was over 100 µM and the TGI [47] was over 100 µM. It also gave a TGI [48] of over 100 µM, a TGI [49] of over 100 µM and a TGI [50] of over 100 µM. For the same compound, the TGI [51] was over 100 µM, the TGI [52] was over 100 µM and the TGI [53] was over 100 µM. The TGI [54] was over 100 µM, the TGI [55] was over 100 µM and the TGI [56] was over 100 µM.
